Measured values: US20060079540A1, “Pde4 and pde3/4 inhibitors for use in the treatment of cachexia” (Altana Pharma AG, priority 2002, published 2006)

Key:
Format in all cases: cell-based, human
[1] = test system: secretion of IL-1 from LXFA 526 lung adenocarcinoma Xenograft explants; assay: IL-1 secretion from LXFA 526 lung adenocarcinoma xenograft explants (ELISA); details: for IL-1 content of the supernatants: 24 hours, DMSO control 85.3 pg/ml
Description: (§1) FIG. 1: Effects of Zardaverine (left graph) and Piclamilast (right graph) on the secretion of IL-1 from LXFA 526 lung adenocarcinoma Xenograft explants. Tumor fragments from mice carrying LXFA 526 xenografts were excised and cell suspensions were seeded into 24 Well plates. After seeding of the cells, Zardaverine at concentrations of 100, 3, and 0.1 μM, respectively, and Piclamilast at concentrations of 1, 0.3 and 0.001 μM, respectively were added and supernatants were harvested 24 hours later. IL-1 content of the supernatants was quantitated using R&D Quantikine ELISA kits according to the manufacturer's recommendations.
(§2) To this end primary cultures of tumor cells were derived from cachexia inducing human xenografts grown subcutaneously in nude mice.
(§3) 5 to 10 NMRI nude mice were implanted with tumor fragments derived from the above mentioned Xenografts and grown until the tumors reached approximately 0.5 g, which correlated well with the onset of cachexia. Animals were then sacrificed and tumors were excised. Cells were subsequently isolated under sterile conditions by the use of mechanic disintegrators, proteases, hyaluronidase, and DNAse I. The crude suspension was passed twice through sterile sieves with diameters of 200 and 50 μM, respectively.
(§4) Washed cell pellets were resuspended in Iscove's modified Dulbecco's Medium +20% FCS (fetal calf serum) and 0.24 to 1×10^6 tumor cells were seeded in 24 well plates. The cell isolates not only contained tumor cells, but also blood cells and stromal elements of murine origin. The cell lines RXF 486L was directly utilized and 1×10^6 cells were seeded into each well.
(§5) Piclamilast and Zardaverine were dissolved in 100% DMSO (dimethyl sulfoxide) and applied at a final concentration of 1 μM to 0.001 μM (Piclamilast) or 100 μM to 0.1 μM (Zardaverine). Drugs and cells were plated at the same time. 24 hours after seeding supernatants were collected, centrifuged, and stored at −80° C.
(§6) For the quantitative measurement of IL-1, IL-6, and TNFα, respectively, the supernatants were analyzed using Quantikine ELISA Kits from R&D Systems according to the manufacturer's recommendations.

[2] = test system: secretion of IL-1 from RXF 393 hypernephroma Xenograft explants; assay: IL-1 secretion from RXF 393 hypernephroma xenograft explants (ELISA); details: for IL-1 content of the supernatants: 24 hours, DMSO control 46.9 pg/ml
Description: as §1, with “2:” for “1:”, “RXF 393 hypernephroma” for “LXFA 526 lung adenocarcinoma”, “RXF 393” for “LXFA 526”, “100” for “100, 3,”, “0.01” for “0.3”
as §2, §3, §4, §5, §6

[3] = test system: secretion of TNFα from LXFA 526 lung adenocarcinoma Xenograft explants; assay: TNFα secretion from LXFA 526 lung adenocarcinoma xenograft explants (ELISA); details: for TNFα content of the supernatants: 24 hours, DMSO control 16.8 pg/ml
Description: as §1, with “3:” for “1:”, “TNFα” for “IL-1”
as §2, §3, §4, §5, §6

[4] = test system: secretion of TNFα from LXFE 397 epidermoid adenocarcinoma Xenograft explants; assay: TNFα secretion from LXFE 397 epidermoid adenocarcinoma xenograft explants (ELISA); details: for TNFα content of the supernatants: 24 hours
Description: FIG. 4: Effects of Zardaverine (left graph) and Piclamilast (right graph) on the secretion of TNFα from LXFE 397 epidermoid adenocarcinoma Xenograft explants. Tumor fragments from mice carrying LXFE 397 xenografts were excised and cell suspensions were seeded into 24 Well plates. After seeding of the cells, Zardaverine at concentrations of 30, 10, and 3 μM, respectively, and Piclamilast at concentrations of 0.3; 0.1; and 0.03 μM, respectively were added and supernatants were harvested 24 hours later. TNFα content of the supernatants was quantitated using R&D Quantikine ELISA kits according to the manufacturers recommendations.
as §2, §3, §4, §5, §6

Q: How did the “IL-1 content of the supernatants” value ([1]; 0.001 μM) turn out when COc1ccc(C(=O)Nc2c(Cl)cncc2Cl)cc1OC1CCCC1 [Piclamilast] was run?
A: The value was 81.9 pg/mL.

Q: And the “IL-1 content of the supernatants” value ([1]; 0.3 μM)?
A: The value was 64.4 pg/mL.

Q: What about the “IL-1 content of the supernatants” value ([1]; 1 μM) of the same compound?
A: The value was 68.9 pg/mL.

Q: What about the “Modulation of IL-1 expression (in words)” value ([1]; LXFA 526) of the same compound?
A: Its value is “able to suppress IL-1 levels”.

Q: And the “IL-1 content of the supernatants” value ([2]; 0.001 μM)?
A: Its value is 43.2 pg/mL.

Q: And the “IL-1 content of the supernatants” value ([2]; 0.01 μM)?
A: Its value is 43.9 pg/mL.

Q: What about the “IL-1 content of the supernatants” value ([2]; 1 μM) of the same compound?
A: Its value is 37.8 pg/mL.

Q: And the “Modulation of IL-1 expression (in words)” value ([2]; RXF 393)?
A: The value was “able to suppress IL-1 levels”.

Q: And the “TNFα content of the supernatants” value ([3]; 0.001 μM)?
A: The value was 17.2 pg/mL.

Q: And the “TNFα content of the supernatants” value ([3]; 0.3 μM)?
A: The value was 15.1 pg/mL.

Q: And the “TNFα content of the supernatants” value ([3]; 1 μM)?
A: The value was 13.9 pg/mL.

Q: And the “modulation of TNFα levels (in words)” value ([3]; LXFA 526 cells)?
A: The value was “able to inhibit the secretion of TNFα”.

Q: And the “TNFα content of the supernatants” value ([4]; 0.03 μM, DMSO control 21.5 pg/ml)?
A: Its value is 14.1 pg/mL.

Q: And the “TNFα content of the supernatants” value ([4]; 0.1 μM, DMSO control 21.5 pg/ml)?
A: Its value is 12.1 pg/mL.

Q: And the “TNFα content of the supernatants” value ([4]; 0.3 μM, DMSO control 21.5 pg/ml)?
A: The value was 10 pg/mL.

Q: And the “modulation of TNFα levels (in words)” value ([4]; LXFE 397 model)?
A: Its value is “able to inhibit the secretion of TNFα”.

Q: What does the source list for COc1cc(-c2ccc(=O)[nH]n2)ccc1OC(F)F [Zardaverine]?
A: IL-1 content of the supernatants ([1]; 0.1 μM): 77.1 pg/mL; IL-1 content of the supernatants ([1]; 3 μM): 67.9 pg/mL; IL-1 content of the supernatants ([1]; 100 μM): 64.5 pg/mL; IL-1 content of the supernatants ([2]; 0.1 μM): 48.1 pg/mL; IL-1 content of the supernatants ([2]; 100 μM): 32.1 pg/mL; TNFα content of the supernatants ([3]; 0.1 μM): 13.8 pg/mL; TNFα content of the supernatants ([3]; 3 μM): 12.9 pg/mL; TNFα content of the supernatants ([3]; 100 μM): 12.6 pg/mL; TNFα content of the supernatants ([4]; 3 μM, DMSO control 30.3 pg/ml): 27.7 pg/mL; TNFα content of the supernatants ([4]; 10 μM, DMSO control 30.3 pg/ml): 28.2 pg/mL; TNFα content of the supernatants ([4]; 30 μM, DMSO control 30.3 pg/ml): 20.1 pg/mL
